# Data from US20250114357A1, “BIFUNCTIONAL PROTAC AND MOLECULAR GLUE COMPOUNDS AND METHODS OF USE THEREOF” (Biolexis Therapeutics, Inc., priority 2023, published 2025).
# pIC50: −log10 of the molar value.
# Molecular target: T1, CDK9/CycT1 (Homo sapiens, UniProt P50750)
# T1 construct: purchased SignalChem
# Test: ADP-Glo Kinase Assay
# Format: biochemical
# Conditions: Table 1; assay not given
# Description: ADP-Glo assay kit is purchased from Promega and the CDK9/CycT1 protein and PDKtide substrate are purchased from SignalChem. Compounds of Structure (I) are dosed in 10-dose IC50 mode in duplicate with 3-fold serial dilution starting at 100 μM. The reaction is started by pre-incubating 4 μL of protein (20 nM), 2 μL of substrate (100 μM), and 2 μL of serial diluted drug in 1× assay buffer (50 mM HEPES, 3 mM MgCl2, 3 mM MnCl2, and 1 mM DTT) for 30 minutes. After pre-incubating, 4 μL of ATP (1 μM) is added to each well and incubated for an additional 90 minutes. The ADP-Glo Reagent (10 μL) and Kinase Detection Reagent (20 μL) are added to each well and incubated as recommended by Promega. The reaction is quantified by measuring luminescence and the IC50 is calculated using GraphPad Prism software.
# T1 sequence (P50750 whole entry): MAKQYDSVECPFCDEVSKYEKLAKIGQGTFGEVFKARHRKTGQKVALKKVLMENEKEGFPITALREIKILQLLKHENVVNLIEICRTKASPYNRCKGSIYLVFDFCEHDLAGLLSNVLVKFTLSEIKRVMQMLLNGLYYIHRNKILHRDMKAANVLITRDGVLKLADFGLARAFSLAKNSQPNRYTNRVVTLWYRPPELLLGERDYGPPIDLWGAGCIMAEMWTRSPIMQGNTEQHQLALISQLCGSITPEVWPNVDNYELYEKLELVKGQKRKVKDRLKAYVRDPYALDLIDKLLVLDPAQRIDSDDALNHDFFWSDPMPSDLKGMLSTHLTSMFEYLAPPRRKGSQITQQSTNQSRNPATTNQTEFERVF
# T1 sequence (O60563 whole entry partner): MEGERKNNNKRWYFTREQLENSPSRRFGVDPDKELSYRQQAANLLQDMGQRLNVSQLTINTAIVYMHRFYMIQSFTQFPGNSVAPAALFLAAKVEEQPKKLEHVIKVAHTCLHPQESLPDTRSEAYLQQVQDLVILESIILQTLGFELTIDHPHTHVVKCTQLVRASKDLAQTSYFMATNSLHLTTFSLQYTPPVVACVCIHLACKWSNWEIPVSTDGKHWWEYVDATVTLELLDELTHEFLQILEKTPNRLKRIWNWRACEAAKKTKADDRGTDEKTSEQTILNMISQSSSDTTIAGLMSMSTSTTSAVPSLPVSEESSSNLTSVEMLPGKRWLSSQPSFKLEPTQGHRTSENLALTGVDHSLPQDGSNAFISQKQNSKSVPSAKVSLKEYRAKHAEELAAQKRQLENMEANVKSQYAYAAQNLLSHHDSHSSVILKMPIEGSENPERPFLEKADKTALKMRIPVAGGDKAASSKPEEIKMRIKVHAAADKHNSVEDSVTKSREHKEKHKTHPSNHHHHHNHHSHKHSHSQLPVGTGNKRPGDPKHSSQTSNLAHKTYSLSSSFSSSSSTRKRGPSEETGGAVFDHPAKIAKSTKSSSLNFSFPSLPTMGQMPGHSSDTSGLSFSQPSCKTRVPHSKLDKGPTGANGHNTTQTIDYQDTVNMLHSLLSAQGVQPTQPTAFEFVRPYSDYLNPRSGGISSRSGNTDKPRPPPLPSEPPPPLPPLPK
row,Structure (SMILES),pIC50
1,"CC(C)c1c2cc(-c3ccnc(N[C@H]4CC[C@H](NCc5ccc(-c6ccccn6)cc5)C4)n3)cc(F)c2nn1C [Compound I-12, (1S,3S)-N^1-(4-(7-fluoro-3-isopropyl-2-methyl-2H-indazol-5-yl)pyrimidin-2-yl)-N^3-(4-(pyridin-2-yl)benzyl)cyclopentane-1,3-diamine]",6.00 to 8.30
2,"CC(C)c1c2cc(-c3ccnc(N[C@H]4CC[C@H](NCc5ccc(-c6ccccn6)cc5)C4)n3)ccc2nn1C [Compound I-11, (1S,3S)-N^1-(4-(3-isopropyl-2-methyl-2H-indazol-5-yl)pyrimidin-2-yl)-N^3-(4-(pyridin-2-yl)benzyl)cyclopentane-1,3-diamine]",6.00 to 8.30
3,"CC(C)c1c2cc(-c3ccnc(N[C@H]4CC[C@H](NCCCCCc5cccc6c5C(=O)N(C5CCC(=O)NC5=O)C6=O)C4)n3)ccc2nn1C (stereo partly drawn) [Compound I-2, 2-(2,6-dioxopiperidin-3-yl)-4-(5-(((1S,3S)-3-((4-(3-isopropyl-2-methyl-2H-indazol-5-yl)pyrimidin-2-yl)amino)cyclopentyl)amino)pentyl)isoindoline-1,3-dione]",6.00 to 8.30
4,"CC(C)c1c2cc(-c3ccnc(N[C@H]4CC[C@H](NCCCCCc5cccc6c5CN(C5CCC(=O)NC5=O)C6=O)C4)n3)ccc2nn1C (stereo partly drawn) [Compound I-1, 3-(4-(5-(((1S,3S)-3-((4-(3-isopropyl-2-methyl-2H-indazol-5-yl)pyrimidin-2-yl)amino)cyclopentyl)amino)pentyl)-1-oxoisoindolin-2-yl)piperidine-2,6-dione]",6.00 to 8.30
5,"CC(C)c1c2cc(-c3ccnc(N[C@H]4CC[C@H](NCc5cccc6c5C(=O)N(C5CCC(=O)NC5=O)C6=O)C4)n3)ccc2nn1C (stereo partly drawn) [Compound I-7, 2-(2,6-dioxopiperidin-3-yl)-4-((((1S,3S)-3-((4-(3-isopropyl-2-methyl-2H-indazol-5-yl)pyrimidin-2-yl)amino)cyclopentyl)amino)methyl)isoindoline-1,3-dione]",6.00 to 8.30
6,"CC(C)c1c2cc(-c3ccnc(N[C@H]4CC[C@H](NC(=O)N5CCN(CCCCCc6ccc7c(c6)CN(C6CCC(=O)NC6=O)C7=O)CC5)C4)n3)cc(F)c2nn1C (stereo partly drawn) [Compound I-6, 4-(5-(2-(2,6-dioxopiperidin-3-yl)-1-oxoisoindolin-5-yl)pentyl)-N-((1S,3S)-3-((4-(7-fluoro-3-isopropyl-2-methyl-2H-indazol-5-yl)pyrimidin-2-yl)amino)cyclopentyl)piperazine-1-carboxamide]",≥ 8.30
7,"CC(C)c1c2cc(-c3ccnc(N[C@H]4CC[C@H](NCc5cccc6c5C(=O)N(C5CCC(=O)NC5=O)C6=O)C4)n3)cc(F)c2nn1C (stereo partly drawn) [Compound I-9, 2-(2,6-dioxopiperidin-3-yl)-4-((((1S,3S)-3-((4-(7-fluoro-3-isopropyl-2-methyl-2H-indazol-5-yl)pyrimidin-2-yl)amino)cyclopentyl)amino)methyl)isoindoline-1,3-dione]",6.00 to 8.30

# Continued, values first:
row,pIC50,Structure (SMILES)
1,≥ 8.30,"CC(C)c1c2cc(-c3ccnc(N[C@H]4CC[C@H](NC(=O)N5CCN(CCCCCc6cccc7c6C(=O)N(C6CCC(=O)NC6=O)C7=O)CC5)C4)n3)ccc2nn1C (stereo partly drawn) [Compound I-3, 4-(5-(2-(2,6-dioxopiperidin-3-yl)-1,3-dioxoisoindolin-4-yl)pentyl)-N-((1S,3S)-3-((4-(3-isopropyl-2-methyl-2H-indazol-5-yl)pyrimidin-2-yl)amino)cyclopentyl)piperazine-1-carboxamide]"
2,≥ 8.30,"CC(C)c1c2cc(-c3ccnc(N[C@H]4CC[C@H](NCc5cccc6c5CN(C5CCC(=O)NC5=O)C6=O)C4)n3)cc(F)c2nn1C (stereo partly drawn) [Compound I-10, 3-(4-((((1S,3S)-3-((4-(7-fluoro-3-isopropyl-2-methyl-2H-indazol-5-yl)pyrimidin-2-yl)amino)cyclopentyl)amino)methyl)-1-oxoisoindolin-2-yl)piperidine-2,6-dione]"
3,≥ 8.30,"CC(C)c1c2cc(-c3ccnc(N[C@H]4CC[C@H](NC(=O)N5CCN(CCCCCc6cccc7c6CN(C6CCC(=O)NC6=O)C7=O)CC5)C4)n3)ccc2nn1C (stereo partly drawn) [Compound I-4, 4-(5-(2-(2,6-dioxopiperidin-3-yl)-1-oxoisoindolin-4-yl)pentyl)-N-((1S,3S)-3-((4-(3-isopropyl-2-methyl-2H-indazol-5-yl)pyrimidin-2-yl)amino)cyclopentyl)piperazine-1-carboxamide]"
4,≥ 8.30,"CC(C)c1c2cc(-c3ccnc(N[C@H]4CC[C@H](NC(=O)N5CCN(CCCCCc6ccc7c(c6)C(=O)N(C6CCC(=O)NC6=O)C7=O)CC5)C4)n3)cc(F)c2nn1C (stereo partly drawn) [Compound I-5, 4-(5-(2-(2,6-dioxopiperidin-3-yl)-1,3-dioxoisoindolin-5-yl)pentyl)-N-((1S,3S)-3-((4-(7-fluoro-3-isopropyl-2-methyl-2H-indazol-5-yl)pyrimidin-2-yl)amino)cyclopentyl)piperazine-1-carboxamide]"
5,≥ 8.30,"CC(C)c1c2cc(-c3ccnc(N[C@H]4CC[C@H](NCc5cccc6c5CN(C5CCC(=O)NC5=O)C6=O)C4)n3)ccc2nn1C (stereo partly drawn) [Compound I-8, 3-(4-((((1S,3S)-3-((4-(3-isopropyl-2-methyl-2H-indazol-5-yl)pyrimidin-2-yl)amino)cyclopentyl)amino)methyl)-1-oxoisoindolin-2-yl)piperidine-2,6-dione]"
